Patent US20240082313A1, “PHARMACEUTICAL COMPOSITIONS AND THEIR METHODS OF USE” (The Trustees of Indiana University, priority 2021, published 2024)

B1: TRAIL: an apoptosis-inducing factor applied to EO771 tumor cells (protein, UniProt P50592 1-291, looked up)
Tumor necrosis factor ligand …: MPSSGALKDLSFSQHFRMMVICIVLLQVLLQAVSVAVTYMYFTNEMKQLQDNYSKIGLACFSKTDEDFWDSTDGEILNRPCLQVKRQLYQLIEEVTLRTFQDTISTVPEKQLSTPPLPRGGRPQKVAAHITGITRRSNSALIPISKDGKTLGQKIESWESSRKGHSFLNHVLFRNGELVIEQEGLYYIYSQTYFRFQEAEDASKMVSKDKVRTKQLVQYIYKYTSYPDPIVLMKSARNSCWSRDAEYGLYSIYQGGLFELKKNDRIFVSVTNEHLMDLDQEASFFGAFLIN
B2: Eef1a1: recombinant protein, tumor-suppressing protein candidate (protein, UniProt P10126 2-462, looked up)
Elongation factor 1-alpha 1: GKEKTHINIVVIGHVDSGKSTTTGHLIYKCGGIDKRTIEKFEKEAAEMGKGSFKYAWVLDKLKAERERGITIDISLWKFETSKYYVTIIDAPGHRDFIKNMITGTSQADCAVLIVAAGVGEFEAGISKNGQTREHALLAYTLGVKQLIVGVNKMDSTEPPYSQKRYEEIVKEVSTYIKKIGYNPDTVAFVPISGWNGDNMLEPSANMPWFKGWKVTRKDGSASGTTLLEALDCILPPTRPTDKPLRLPLQDVYKIGGIGTVPVGRVETGVLKPGMVVTFAPVNVTTEVKSVEMHHEALSEALPGDNVGFNVKNVSVKDVRRGNVAGDSKNDPPMEAAGFTAQVIILNHPGQISAGYAPVLDCHTAHIACKFAELKEKIDRRSGKKLEDGPKFLKSGDAAIVDMVPGKPMCVESFSDYPPLGRFAVRDMRQTVAVGVIKAVDKKAAGAGKVTKSAQKAQKAK
B3: Aldoa: recombinant protein, tumor-suppressing protein candidate (protein, UniProt P05064 2-364, looked up)
Fructose-bisphosphate …: PHPYPALTPEQKKELSDIAHRIVAPGKGILAADESTGSIAKRLQSIGTENTEENRRFYRQLLLTADDRVNPCIGGVILFHETLYQKADDGRPFPQVIKSKGGVVGIKVDKGVVPLAGTNGETTTQGLDGLSERCAQYKKDGADFAKWRCVLKIGEHTPSALAIMENANVLARYASICQQNGIVPIVEPEILPDGDHDLKRCQYVTEKVLAAVYKALSDHHVYLEGTLLKPNMVTPGHACTQKFSNEEIAMATVTALRRTVPPAVTGVTFLSGGQSEEEASINLNAINKCPLLKPWALTFSYGRALQASALKAWGGKKENLKAAQEEYIKRALANSLACQGKYTPSGQSGAAASESLFISNHAY

Assays:
[1] = system: EO771 mammary tumor cells; test: Wound-healing scratch assay; type: cell-based, mouse; details: inhibitor applied with iTS CM
Protocol: Two-dimensional motility assay. A wound-healing scratch motility assay was performed to measure 2-dimensional cell motility. Cells were seeded in 12-well plates, after cell attachment, a plastic pipette tip was used to scratch a gap on the cell layer. Images of the cell-free scratch zone were obtained via an inverted microscope at 0 h, and the areas newly occupied with cells were determined 48 h after scratching. The areas were quantified with Image J (National Institutes of Health, Maryland, USA).
Scratch assay. A wound-healing scratch assay was conducted to evaluate 2-dimensional migratory behavior. Approximately 4×10^5 cells were seeded in 12-well plates. After cell attachment, a plastic pipette tip was used to scratch a gap on the cell layer. After the removal of the floating cells, CM was added. Images of the cell-free scratch zone were collected at 0 h, and the areas newly occupied with cells were determined 24-48 h after scratching. The areas were quantified with IMAGE J™ (National Institutes of Health, Bethesda, MD, USA).

[2] = system: EO771 mammary tumor cells; test: TRANSWELL invasion assay; type: cell-based, mouse; details: inhibitor applied with iTS CM
Protocol: Invasion assay. The invasion capacity of cancer cells was determined using a 24-well plate, TRANSWELL® chambers (Thermo Fisher Scientific, Waltham, MA, USA) with […] pore size and MATRIGEL™. Cell invasion was measured in TRANSWELL® chambers with a coating including MATRIGEL™ (100 μg/ml). The cells in 200 μL serum-free DMEM were placed on the upper chamber and 800 μL iTS CM was added in the lower chamber. After 24 h, the cells that had invaded the lower side of the membrane were stained with Crystal Violet. At least five randomly chosen images were taken under a microscope, and the average number of stained cells that represented the relative invasion was determined.

[3] = system: 4T1.2 mouse mammary tumor cells; test: Tumor selectivity from MTT-based viability (tumor vs non-tumor cells); type: cell-based
From the text: (§1) Variations in tumor selectivity among the predicted tumor-suppressing proteins. Tumor-suppressing proteins may inhibit the progression of tumor cells but not inhibit the progression of non-tumor cells. Using the MTT-based viability, tumor selectivity was defined as a ratio of (reduction in MTT-based viability of tumor cells) to (reduction in MTT-based viability of non-tumor cells). The tumor selectivity may be above one to remove tumor cells and a larger value may signify a reduction in the inhibition of the growth of non-tumor cells. The tumor selectivity was determined using three tumor cells (4T1.2 mouse mammary tumor cells, EO771 mammary tumor cells, and MDA-MB-231 breast cancer cells) and three non-tumor cells (adipose cells, MLO-A5 osteocytes, and murine MSCs). […] Table 2 provides the tumor selectivity of 4T1.2 Oct4 CM, 4T1.2 c-Myc CM, and 10 tumor-suppressing protein candidates.

[4] = system: EO771 mammary tumor cells; test: as above; type: cell-based, mouse; details: tumor cells EO
From the text: as §1

[5] = system: MDA-MB-231 breast cancer cells; test: as above; type: cell-based, human
From the text: as §1

EO771 cells = test: Western blot analysis; type: cell-based, mouse
Protocol: Western blot analysis. Cultured cells were lysed in a radio-immunoprecipitation assay buffer with protease inhibitors (Santa Cruz Biotechnology, Santa Cruz, CA, USA) and phosphatase inhibitors (Calbiochem, Billerica, MA, USA). After cell lysis, proteins were fractionated by 10-15% SDS gels and electro-transferred to polyvinylidene difluoride (“PVDF”) transfer membranes (Millipore, Billerica, MA, USA). After blocking 1 h with a blocking buffer (Bio-Rad), the membrane was incubated overnight with primary antibodies and then with secondary antibodies conjugated with horseradish peroxidase for 45 min (Cell Signaling, Danvers, MA, USA). Antibodies against β-catenin, cleaved-caspase 3, Runx2, Snail, Enolase-1 (Cell Signaling, Danvers, MA, USA), MMP9 (Santa Cruz, Dallas, TX, USA), TRAIL (Novus, Centennial, CO, USA), p53 (Invitrogen, Carlsbad, CA, USA), and β-actin as a control (Sigma, St. Louis, MO, USA), were employed. The level of proteins was determined using a SUPERSIGNAL™ west femto maximum sensitivity substrate (Thermo Scientific, Waltham, MA, USA), and a luminescent image analyzer (LAS-3000, Fuji Film, Tokyo, Japan) was used to quantify signal intensities.

Row | Molecule | inhibitory effect of β-catenin-overexpressing iTS CM on migration [1] | inhibitory effect of β-catenin-overexpressing iTS CM on invasion [2] | Tumor selectivity ([3]; non-tumor cells A5) | Tumor selectivity ([3]; non-tumor cells Adipose) | Tumor selectivity ([3]; non-tumor cells MSC) | Tumor selectivity ([4]; non-tumor cells A5) | Tumor selectivity ([4]; non-tumor cells Adipose) | Tumor selectivity ([4]; non-tumor cells MSC) | Tumor selectivity ([5]; non-tumor cells A5) | Tumor selectivity ([5]; non-tumor cells Adipose) | Tumor selectivity ([5]; non-tumor cells MSC) | level of cleaved caspase 3 (EO771 cells)
1 | NCCOCCOCCNC(=O)Cc1ccc(Nc2nc(NCc3ccc(F)cc3)nc(NCC3CCCCC3)n2)cc1 [AP-III-a4, reference compound] | suppressed the inhibitory effect | suppressed the inhibitory effect | – | – | – | – | – | – | – | – | – | –
2 | Flna: recombinant protein, tumor-suppressing protein candidate | – | – | 1.43 | 1.19 | 1.05 | 1.97 | 1.64 | 1.45 | 1.54 | 1.28 | 1.13 | –
3 | Myh9: recombinant protein, tumor-suppressing protein candidate | – | – | 0.25 | 0.48 | 0.70 | 0.32 | 0.64 | 0.93 | 0.23 | 0.46 | 0.66 | –
4 | Plec: recombinant protein, tumor-suppressing protein candidate | – | – | 1.33 | 1.28 | 1.06 | 1.95 | 1.86 | 1.54 | 1.16 | 1.10 | 0.91 | –
5 | B1 | – | – | – | – | – | – | – | – | – | – | – | increased
6 | B2 | – | – | 1.23 | 0.74 | 1.34 | 0.96 | 0.58 | 1.05 | 0.86 | 0.52 | 0.94 | –
7 | B3 | – | – | 2.72 | 3.06 | 1.39 | 1.87 | 2.10 | 0.96 | 1.75 | 1.97 | 0.90 | –
